Measurements: ChEMBL document CHEMBL1201862, “PubChem BioAssay data set” (2004)
Values belong to the compound of their own block, whether it stands above or below them. Activity calls are given as the source filed them.

Experiments:
[1] = target: T1, Zinc finger protein mex-5 (Caenorhabditis elegans, UniProt Q9XUB2); experiment: MEX-5/TCR-2 RNA interaction inhibitors, dose response, biochemical, C. elegans, fluorescence polarization (AID 1960)
T1 sequence (Q9XUB2 whole entry): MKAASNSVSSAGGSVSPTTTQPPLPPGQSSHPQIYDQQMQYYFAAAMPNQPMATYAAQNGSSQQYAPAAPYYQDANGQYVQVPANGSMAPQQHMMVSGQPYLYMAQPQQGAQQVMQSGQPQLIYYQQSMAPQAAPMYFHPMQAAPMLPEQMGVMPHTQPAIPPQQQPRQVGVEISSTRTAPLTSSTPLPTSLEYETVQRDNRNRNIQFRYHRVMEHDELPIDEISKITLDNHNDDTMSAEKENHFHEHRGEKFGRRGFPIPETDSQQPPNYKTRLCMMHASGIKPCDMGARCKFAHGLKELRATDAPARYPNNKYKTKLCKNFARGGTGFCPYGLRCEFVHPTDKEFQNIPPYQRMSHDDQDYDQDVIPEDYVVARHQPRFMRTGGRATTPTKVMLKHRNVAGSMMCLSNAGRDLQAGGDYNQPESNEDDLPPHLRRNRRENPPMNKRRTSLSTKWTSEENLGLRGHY

[2] = target: T2, RNA-binding protein pos-1 (Caenorhabditis elegans, UniProt G5EF15); experiment: inhibitors of POS-1/mex-3 RNA binding, dose response, biochemical, fluorescence polarization (AID 1964);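 further: purified POS-1 fused to maltose binding protein made in E. coli; potency of compounds blocking POS-1 binding to fluorescent RNA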
T2 sequence (G5EF15 whole entry): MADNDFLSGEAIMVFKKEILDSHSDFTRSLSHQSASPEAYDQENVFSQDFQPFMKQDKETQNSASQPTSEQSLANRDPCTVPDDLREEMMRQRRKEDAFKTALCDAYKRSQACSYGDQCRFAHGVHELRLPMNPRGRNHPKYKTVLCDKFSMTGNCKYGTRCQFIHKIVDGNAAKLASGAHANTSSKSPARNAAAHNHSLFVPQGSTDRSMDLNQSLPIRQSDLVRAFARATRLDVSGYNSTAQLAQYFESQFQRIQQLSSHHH

Fatty acid synthase [3] = target: T3, Fatty acid synthase (Homo sapiens, UniProt P49327); experiment: FAS thioesterase domain inhibitors, dose response, biochemical, endpoint fluorescence intensity, uHTS hits (AID 624327); assay type: functional;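 further: fluorescence from hydrolysis of an O-methyl fluorescein acyl ester substrate by the enzyme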
T3 sequence (P49327 whole entry, the tested form may be a part): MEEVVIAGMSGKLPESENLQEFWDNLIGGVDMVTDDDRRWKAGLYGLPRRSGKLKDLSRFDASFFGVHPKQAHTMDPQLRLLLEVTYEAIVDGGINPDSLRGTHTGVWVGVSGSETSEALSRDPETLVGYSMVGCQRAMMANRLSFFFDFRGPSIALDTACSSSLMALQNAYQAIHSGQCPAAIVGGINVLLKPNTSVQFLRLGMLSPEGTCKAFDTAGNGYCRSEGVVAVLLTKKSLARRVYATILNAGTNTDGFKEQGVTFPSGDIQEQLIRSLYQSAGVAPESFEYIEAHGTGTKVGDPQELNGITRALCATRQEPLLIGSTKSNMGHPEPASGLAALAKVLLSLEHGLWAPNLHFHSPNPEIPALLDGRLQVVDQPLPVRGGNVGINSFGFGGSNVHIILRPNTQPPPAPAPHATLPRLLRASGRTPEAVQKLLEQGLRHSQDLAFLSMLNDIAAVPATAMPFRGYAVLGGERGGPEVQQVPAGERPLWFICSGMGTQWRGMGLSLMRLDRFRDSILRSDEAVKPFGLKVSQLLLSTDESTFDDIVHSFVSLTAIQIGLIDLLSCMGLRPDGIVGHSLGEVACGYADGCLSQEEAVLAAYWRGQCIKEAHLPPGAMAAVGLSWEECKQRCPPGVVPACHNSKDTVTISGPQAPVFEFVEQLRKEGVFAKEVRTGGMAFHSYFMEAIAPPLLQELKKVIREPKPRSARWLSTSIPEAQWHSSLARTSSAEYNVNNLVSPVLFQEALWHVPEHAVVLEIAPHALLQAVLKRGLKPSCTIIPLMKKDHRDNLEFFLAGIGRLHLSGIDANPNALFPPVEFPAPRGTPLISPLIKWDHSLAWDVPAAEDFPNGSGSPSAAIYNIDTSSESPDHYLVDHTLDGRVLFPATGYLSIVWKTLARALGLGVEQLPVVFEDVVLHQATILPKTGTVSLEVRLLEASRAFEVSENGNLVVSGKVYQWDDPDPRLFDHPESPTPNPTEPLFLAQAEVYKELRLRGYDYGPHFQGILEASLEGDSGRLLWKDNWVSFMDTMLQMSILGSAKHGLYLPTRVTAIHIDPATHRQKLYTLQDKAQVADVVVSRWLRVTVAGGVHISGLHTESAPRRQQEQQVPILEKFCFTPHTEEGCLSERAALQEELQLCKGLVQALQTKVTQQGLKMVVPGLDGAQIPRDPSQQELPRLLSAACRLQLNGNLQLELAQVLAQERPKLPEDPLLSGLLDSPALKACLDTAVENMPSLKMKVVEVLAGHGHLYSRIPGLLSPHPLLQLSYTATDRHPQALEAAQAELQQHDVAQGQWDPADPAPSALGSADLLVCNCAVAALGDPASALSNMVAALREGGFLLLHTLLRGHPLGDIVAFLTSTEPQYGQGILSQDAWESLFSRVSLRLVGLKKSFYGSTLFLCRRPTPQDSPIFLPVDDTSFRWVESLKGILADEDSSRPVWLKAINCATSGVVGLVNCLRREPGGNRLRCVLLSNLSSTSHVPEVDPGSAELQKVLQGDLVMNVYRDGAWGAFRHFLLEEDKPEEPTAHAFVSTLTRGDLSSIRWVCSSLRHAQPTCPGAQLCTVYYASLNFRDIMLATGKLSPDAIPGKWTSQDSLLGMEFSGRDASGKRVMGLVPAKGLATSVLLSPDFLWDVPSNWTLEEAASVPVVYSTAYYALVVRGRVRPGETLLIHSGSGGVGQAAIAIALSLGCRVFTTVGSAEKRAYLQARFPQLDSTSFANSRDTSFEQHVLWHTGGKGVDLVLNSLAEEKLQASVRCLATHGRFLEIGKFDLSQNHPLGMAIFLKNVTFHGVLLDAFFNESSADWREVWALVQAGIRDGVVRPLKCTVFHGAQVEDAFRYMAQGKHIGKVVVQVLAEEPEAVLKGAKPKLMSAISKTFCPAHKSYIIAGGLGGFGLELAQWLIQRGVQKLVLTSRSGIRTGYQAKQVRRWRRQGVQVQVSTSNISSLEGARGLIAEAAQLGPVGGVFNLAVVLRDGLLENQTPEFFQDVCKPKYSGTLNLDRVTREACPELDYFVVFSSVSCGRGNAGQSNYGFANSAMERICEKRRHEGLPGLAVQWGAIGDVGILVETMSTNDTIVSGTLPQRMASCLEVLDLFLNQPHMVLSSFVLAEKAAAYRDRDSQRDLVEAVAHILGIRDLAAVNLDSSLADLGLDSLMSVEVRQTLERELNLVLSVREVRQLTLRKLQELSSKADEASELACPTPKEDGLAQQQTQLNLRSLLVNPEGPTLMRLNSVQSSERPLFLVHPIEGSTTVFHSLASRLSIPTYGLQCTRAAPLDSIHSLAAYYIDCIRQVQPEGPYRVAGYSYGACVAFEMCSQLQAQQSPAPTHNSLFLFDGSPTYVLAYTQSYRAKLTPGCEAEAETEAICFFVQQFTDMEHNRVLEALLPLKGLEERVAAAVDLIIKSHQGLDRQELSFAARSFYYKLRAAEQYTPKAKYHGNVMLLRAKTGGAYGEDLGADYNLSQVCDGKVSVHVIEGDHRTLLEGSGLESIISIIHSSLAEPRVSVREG

Fatty acid synthase [4] = target: T3, Fatty acid synthase; experiment: FAS thioesterase domain inhibitors, dose response, biochemical, kinetic fluorescence intensity (AID 624326); assay type: functional;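 further: rate of fluorescence rise from hydrolysis of a fluorogenic O-methyl fluorescein ester substrate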
[5] = target: T4, Carboxy-terminal domain RNA polymerase II polypeptide A small phosphatase 1 (Homo sapiens, UniProt Q9GZU7); experiment: inhibitors of CTDSP1, concentration-response testing, biochemical assay, absorbance-based, actives from ultra-high-throughput screening (AID 540297); assay type: functional
T4 sequence (Q9GZU7 whole entry): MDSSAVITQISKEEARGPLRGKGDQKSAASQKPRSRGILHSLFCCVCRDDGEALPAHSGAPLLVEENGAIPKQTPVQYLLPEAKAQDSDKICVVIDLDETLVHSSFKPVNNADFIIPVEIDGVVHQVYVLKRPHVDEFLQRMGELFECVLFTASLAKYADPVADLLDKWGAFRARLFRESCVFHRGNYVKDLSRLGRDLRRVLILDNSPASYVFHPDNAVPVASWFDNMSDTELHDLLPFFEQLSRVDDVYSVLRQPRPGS

[6] = intracellular Trypanosoma cruzi inhibitors in host cells – cell-based, plate reader, cherry-pick samples, set 3, dose response (AID 651818); assay type: functional;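 further: compounds incubated with infected cells for about four days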
[7] = P. falciparum Dd2 growth inhibitors, dose response, SYBR Green, cherry-picked samples (AID 1159567); assay type: functional, cell-based
[8] = NIH-3T3 fibroblast cytotoxicity, dose response, cytotoxicity control, cell-based, fluorescence, Alamar Blue, secondary assay (AID 2327); assay type: functional;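 further: NIH-3T3 mouse fibroblasts cultured with fluconazole at 8 µg/mL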
[9] = C. albicans growth with fluconazole, confirmation, fluorescence, retest (AID 2467); assay type: functional, cell-based
Leucine aminopeptidase = target: T5, Leucine aminopeptidase (Plasmodium falciparum 3D7, UniProt Q8IL11); experiment: P. falciparum M17LAP inhibitors, primary screen, biochemical, fluorogenic H-Leu-NHMec substrate, 1536-well (AID 1619); assay type: functional
T5 sequence (Q8IL11 whole entry): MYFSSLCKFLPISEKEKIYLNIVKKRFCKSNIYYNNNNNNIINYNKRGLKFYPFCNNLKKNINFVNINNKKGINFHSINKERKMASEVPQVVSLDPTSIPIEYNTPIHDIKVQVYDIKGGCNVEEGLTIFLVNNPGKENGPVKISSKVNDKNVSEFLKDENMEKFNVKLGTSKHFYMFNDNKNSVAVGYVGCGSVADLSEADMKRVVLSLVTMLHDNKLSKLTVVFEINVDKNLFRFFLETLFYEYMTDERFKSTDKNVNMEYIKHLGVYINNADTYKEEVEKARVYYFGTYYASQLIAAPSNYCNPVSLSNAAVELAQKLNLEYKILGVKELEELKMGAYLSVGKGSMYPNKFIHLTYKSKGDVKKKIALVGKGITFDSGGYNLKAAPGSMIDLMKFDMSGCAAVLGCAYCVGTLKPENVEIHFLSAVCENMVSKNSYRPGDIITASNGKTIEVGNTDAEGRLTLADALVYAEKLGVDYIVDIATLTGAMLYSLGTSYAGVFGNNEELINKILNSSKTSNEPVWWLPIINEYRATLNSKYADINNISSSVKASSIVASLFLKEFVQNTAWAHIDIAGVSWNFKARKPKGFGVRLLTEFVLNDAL

EC50 [1]: 9.86 µM (active)
EC50 [2]: 15.5 µM (active)
Compound: Cc1nn(C)c(C)c1CN(C)C(=O)C1c2ccccc2Oc2ccccc21

IC50 (Fatty acid synthase [3]): 12.7 µM (active)
IC50 (Fatty acid synthase [4]): 11.2 µM (active)
Compound: COC(=O)c1cc(C(=O)Nc2nnc(CC(C)(C)C)s2)cc([N+](=O)[O-])c1

IC50 (Fatty acid synthase [3]): 1.13 µM (active)
IC50 (Fatty acid synthase [4]): 4.08 µM (active)
Compound: CCN(C(=O)COC(=O)c1cc([N+](=O)[O-])ccc1N1CCOCC1)C1CCCCC1

IC50 (Fatty acid synthase [3]): 14.9 µM (active)
IC50 [5]: 4.3 µM (active)
IC50 (Fatty acid synthase [4]): 9.65 µM (active)
Compound: Cc1ccc(NC(=O)CN2C(=O)CSc3ccc(S(=O)(=O)N4CCCCC4)cc32)cc1

Compound: Cc1cc(C(=O)Nc2cccc3c2O[C@@H](CN(C)Cc2ccc(-c4ccccc4)cc2)[C@@H](C)CN([C@H](C)CO)C3=O)n(C)n1
AC50 [6]: 5.16 µM (active)

Compound: C[C@H]1CN([C@@H](C)CO)C(=O)c2cc(NS(=O)(=O)c3ccc(Cl)cc3)ccc2O[C@H]1CN(C)Cc1ccc(C(=O)Nc2ccccc2N)cc1
AC50 [6]: 1.96 µM (active)

Compound: COc1ccc(CN(C)C[C@@H]2Oc3c(NC(=O)Nc4ccc(C(F)(F)F)cc4)cccc3C(=O)N([C@H](C)CO)C[C@@H]2C)cc1
AC50 [6]: 1.42 µM (active)

Compound: C[C@H](CO)N1C[C@H](C)[C@@H](CN(C)Cc2ccc(C(=O)Nc3ccccc3N)cc2)Oc2c(NS(=O)(=O)c3ccc(Cl)cc3)cccc2C1=O
AC50 [6]: 1.41 µM (active)

Compound: C[C@H]1CN([C@@H](C)CO)C(=O)c2cc(NC(=O)Nc3cccc4ccccc34)ccc2O[C@@H]1CN(C)Cc1ccc(Oc2ccccc2)cc1
AC50 [6]: 4.66 µM (active)
AC50 [7]: 7.39 µM (active)

Compound: C[C@H]1CN([C@@H](C)CO)C(=O)c2cccc(NC(=O)CCCCCC(=O)Nc3ccccc3N)c2O[C@@H]1CN(C)Cc1ccc(-c2ccccc2)cc1
AC50 [6]: 1.71 µM (active)

Compound: C[C@H]1CN([C@@H](C)CO)C(=O)Cc2cc(NC(=O)Nc3ccc(C(F)(F)F)cc3)ccc2O[C@H]1CN(C)Cc1ccc(C(=O)Nc2ccccc2N)cc1
AC50 [6]: 2.13 µM (active)

Compound: O=C(CNc1ccccc1F)N/N=C/C1CC=CCC1 (stereo unspecified)
EC50 [8]: > 160 µM (inactive)
EC50 [9]: > 38 µM (not active)

EC50 [1]: > 300 µM (not active)
EC50 [2]: > 300 µM (not active)
Compound: CCOC(=O)c1cc2c(=O)n3ccccc3nc2n(C(C)C)/c1=N\C(=O)c1ccncc1

IC50 (Leucine aminopeptidase): 48.6 µM (active)
Compound: CSc1nnc(-c2ccccc2/N=C/c2c(C)nn(-c3ccccc3)c2O)c(O)n1

EC50 [1]: > 300 µM (not active)
EC50 [2]: > 300 µM (not active)
Compound: C/N=C1\S/C(=C\c2cn(CC(=O)OC)c3ccccc23)C(=O)N1C

EC50 [1]: > 300 µM (not active)
EC50 [2]: > 300 µM (not active)
Compound: O=C(O)c1ccc(-n2cccc2)cc1O
